Reference: patent US10941157B2, “Pesticidal compositions and uses thereof” (Gilead Apollo, LLC, priority 2015, dated 2021)
In brackets after ≈: the same amount, converted by molar mass.

What was measured:
Botrtyis cinerea (Bc) = test: In vitro pathogen growth inhibition assay, Bc; type: cell-based; conditions: 48 h, ≥90% growth inhibition; 48 hours; vs 2% DMSO control; read-out: Compound Concentration (ppm) sufficient for ≥90% inhibition of Bc
Procedure, shortened: (§1)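 Spores in 17% V8 liquid medium, or 1.5 mm Rs mycelial plugs in ¼ PDB, incubated with compound; final concentration checked by OD600 for precipitation. OD readings at 24 and 48 h, blank-subtracted, plus visual ratings; value is concentration giving ≥90% growth inhibition.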

[1] = test system: Collectotrichum graminicola (Cg); test: In vitro pathogen growth inhibition assay, Cg; type: cell-based; conditions: 48 h, ≥90% growth inhibition; 48 hours; vs 2% DMSO control; read-out: Compound Concentration (ppm) sufficient for ≥90% inhibition of Cg
Procedure, shortened: as §1

Diplodia maydis (Dm) = test: In vitro pathogen growth inhibition assay, Dm; type: cell-based; conditions: Stenocarpella maydis, 48 h, ≥90% growth inhibition; 48 hours; vs 2% DMSO control; read-out: Compound Concentration (ppm) sufficient for ≥90% inhibition of Dm
Procedure, shortened: as §1

[2] = test system: Fusarium moniliforme (Fm); test: In vitro pathogen growth inhibition assay, Fm; type: cell-based; conditions: Fusarium verticillioides; ≥90% growth inhibition; 48 hours; vs 2% DMSO control; read-out: Compound Concentration (ppm) sufficient for ≥90% inhibition of Fm
Procedure, shortened: as §1

[3] = test system: Fusarium virguliforme (Fv); test: In vitro pathogen growth inhibition assay, Fv; type: cell-based; conditions: ≥90% growth inhibition, 48 hours, vs 2% DMSO control, read-out: Compound Concentration (ppm) sufficient for ≥90% inhibition of Fv
Procedure, shortened: as §1

[4] = test system: Phytophthora capsici (Pc); test: In vitro pathogen growth inhibition assay, Pc; type: cell-based; conditions: 48 h, ≥90% growth inhibition, 48 hours, vs 2% DMSO control, read-out: Compound Concentration (ppm) sufficient for ≥90% inhibition of Pc
Procedure, shortened: as §1

Rhizoctonia solani (Rs) = test: In vitro pathogen growth inhibition assay, Rs (mycelial plugs); type: cell-based; conditions: Rhizoctonia solani, 48 h, ≥90% growth inhibition; mycelial plugs; 48 hours; vs 2% DMSO control; read-out: Compound Concentration (ppm) sufficient for ≥90% inhibition of Rs
Procedure, shortened: as §1

Septoria tritici (St) = test: In vitro pathogen growth inhibition assay, St; type: cell-based; conditions: Zymoseptoria tritici, 48 h, ≥90% growth inhibition; 48 hours; vs 2% DMSO control; read-out: Compound Concentration (ppm) sufficient for ≥90% inhibition of St
Procedure, shortened: as §1

[5] = test system: Blumeria graminis f. sp. hordei; test: Foliar protection test for barley powdery mildew control; type: in vivo; conditions: foliar spray on Hordeum vulgare cv. Perry, inoculated 24 hours after treatment, evaluated 7 days later
Procedure, shortened: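 Six-day-old barley (cv. Perry) sprayed to wetness on both leaf sides; 24 h later inoculated by shaking spores from infected stock plants. Kept at 20 to 22° C, 70% relative humidity; mildew colonization assessed 7 days later.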

Sphaerotheca fuliginea = test: Foliar protection for cucumber powdery mildew control; type: in vivo; conditions: foliar spray on Cucumis sativus cv. Straight Eight, inoculated 24 hours after treatment, evaluated 7 days later
Procedure, shortened: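 Cucumber plants (cv. Straight Eight, 10 days old) sprayed to wetness on both leaf surfaces, then inoculated 24 h later by shaking sporulating stock plants over them. Held at 23–27 °C, 16 h light, 60% RH. Mildew colonization scored 7 days after inoculation, at compound concentrations of 10 ppm or lower.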

[6] = test system: Mycosphaerella graminicola (synthetic Septoria tritici); test: Foliar protection test for wheat septoria leaf blotch control; type: in vivo; conditions: foliar spray on Triticum aestivum cv. WinterHawk, inoculated 1 hour after treatment, evaluated 16 days later
Fusarium graminearum = type: in vivo; conditions: spray on flowering Triticum aestivum cv. Samson, inoculated 24 hours after treatment, evaluated 14 days later
Puccinia triticina = test: Foliar protection test for wheat leaf rust control; type: in vivo; conditions: foliar application to wheat (Triticum aestivum cv. Winterhawk), evaluated 10 days later
Phakopsora pachyrhizi = test: Foliar protection test for Asian soybean rust control; type: in vivo; conditions: foliar application to soybean (Glycine max AG4832), percent disease area evaluated 14 days later

SMILES | IC90 (Botrtyis cinerea (Bc)) | IC90 [1] | IC90 (Diplodia maydis (Dm)) | IC90 [2] | IC90 [3] | IC90 [4] | IC90 (Rhizoctonia solani (Rs)) | IC90 (Septoria tritici (St)) | Barley Powdery Mildew Control at a compound concentration of 10 ppm or lower [5] | Cucumber Powdery Mildew Control at a compound concentration of 10 ppm or lower (Sphaerotheca fuliginea) | Septoria Leaf Blotch Control at a compound concentration of 25 ppm or lower [6] | Wheat Fusarium Head Blight Control at a compound concentration of 25 ppm or lower (Fusarium graminearum) | Wheat Leaf Rust Control at a compound concentration of 10 ppm or lower (Puccinia triticina) | Asian Soybean Rust Control at a compound concentration of 25 ppm or lower (Phakopsora pachyrhizi)
CCOC(=O)c1sc2c(c1C)c(=O)n(C(C)(C)C(=O)NC(C)C)c(=O)n2C[C@H](OCCO)c1cc(F)ccc1OC [Compound I-184, (R)-ethyl-1-(2-(5-fluoro-2-methoxyphenyl)-2-(2-hydroxyethoxy)ethyl)-3-(1-(isopropylamino)-2-methyl-1-oxopropan-2-yl)-5-methyl-2,4-dioxo-1,2,3,4-tetrahydrothieno[2,3-d]pyrimidine-6-carboxylate] | 2 µg/mL (≈ 3.37 µM) | 0.4 µg/mL (≈ 0.674 µM) | 0.4 µg/mL (≈ 0.674 µM) | 0.08 µg/mL (≈ 0.135 µM) | 2 µg/mL (≈ 3.37 µM) | 50 µg/mL (≈ 84.2 µM) | 0.08 µg/mL (≈ 0.135 µM) | > 50 µg/mL | A (from 70% to 84% control of barley powdery mildew) | AA (≥85% control of cucumber powdery mildew) | C (from 25 to 49% control of wheat septoria leaf blotch) | A (from 70% to 84% control of wheat fusarium head blight) | AA (≥85% control of wheat leaf rust) | B (from 50 to 69% control of Asian soybean rust)
CCOC(=O)c1sc2c(c1C)c(=O)n(C(C)(C)C(=O)NC(C)C)c(=O)n2C[C@H](O)c1cc(F)ccc1OC [Compound I-186, (R)-ethyl-1-(2-(5-fluoro-2-methoxyphenyl)-2-hydroxyethyl)-3-(1-(isopropylamino)-2-methyl-1-oxopropan-2-yl)-5-methyl-2,4-dioxo-1,2,3,4-tetrahydrothieno[2,3-d]pyrimidine-6-carboxylate] | 0.4 µg/mL (≈ 0.728 µM) | 2 µg/mL (≈ 3.64 µM) | 2 µg/mL (≈ 3.64 µM) | 0.08 µg/mL (≈ 0.146 µM) | 0.08 µg/mL (≈ 0.146 µM) | > 50 µg/mL | 0.4 µg/mL (≈ 0.728 µM) | > 50 µg/mL | A (from 70% to 84% control of barley powdery mildew) | C (from 25 to 49% control of cucumber powdery mildew) | D (<25% control of wheat septoria leaf blotch) | B (from 50 to 69% control of wheat fusarium head blight) | C (from 25 to 49% control of wheat leaf rust) | D (<25% control of Asian soybean rust)
COc1ccc(F)cc1[C@@H](O)Cn1c(=O)n([C@H](C)C(=O)N(C)C(C)C)c(=O)c2c(C)c(-n3nccn3)sc21 [Compound I-188, (R)-2-(1-((R)-2-(5-fluoro-2-methoxyphenyl)-2-hydroxyethyl)-5-methyl-2,4-dioxo-6-(2H-1,2,3-triazol-2-yl)-1,4-dihydrothieno[2,3-d]pyrimidin-3 (2H)-yl)-N-isopropyl-N-methylpropanamide] | 0.4 µg/mL (≈ 0.734 µM) | 2 µg/mL (≈ 3.67 µM) | 2 µg/mL (≈ 3.67 µM) | 0.08 µg/mL (≈ 0.147 µM) | 0.4 µg/mL (≈ 0.734 µM) | > 50 µg/mL | 0.4 µg/mL (≈ 0.734 µM) | > 50 µg/mL | AA (≥85% control of barley powdery mildew) | AA (≥85% control of cucumber powdery mildew) | C (from 25 to 49% control of wheat septoria leaf blotch) | D (<25% control of wheat fusarium head blight) | AA (≥85% control of wheat leaf rust) | B (from 50 to 69% control of Asian soybean rust)
COc1ccc(F)cc1[C@@H](O)Cn1c(=O)n([C@@H](C)C(=O)N(C)C(C)C)c(=O)c2c(C)c(-n3nccn3)sc21 [Compound I-189, (S)-2-(1-((R)-2-(5-fluoro-2-methoxyphenyl)-2-hydroxyethyl)-5-methyl-2,4-dioxo-6-(2H-1,2,3-triazol-2-yl)-1,4-dihydrothieno[2,3-d]pyrimidin-3 (2H)-yl)-N-isopropyl-N-methylpropanamide] | 0.4 µg/mL (≈ 0.734 µM) | 0.4 µg/mL (≈ 0.734 µM) | 0.4 µg/mL (≈ 0.734 µM) | 0.08 µg/mL (≈ 0.147 µM) | 0.4 µg/mL (≈ 0.734 µM) | > 50 µg/mL | 0.08 µg/mL (≈ 0.147 µM) | 50 µg/mL (≈ 91.8 µM) | AA (≥85% control of barley powdery mildew) | AA (≥85% control of cucumber powdery mildew) | A (from 70% to 84% control of wheat septoria leaf blotch) | C (from 25 to 49% control of wheat fusarium head blight) | AA (≥85% control of wheat leaf rust) | A (from 70% to 84% control of Asian soybean rust)
COc1ccccc1[C@H](Cn1c(=O)n(C(C)(C)C(=O)NC(C)C)c(=O)c2c(C)c(-n3cccn3)sc21)OCCC#N [Compound I-192, (R)-2-(1-(2-(2-cyanoethoxy)-2-(2-methoxyphenyl)ethyl)-5-methyl-2,4-dioxo-6-(1H-pyrazol-1-yl)-1,4-dihydrothieno[2,3-d]pyrimidin-3 (2H)-yl)-N-isopropyl-2-methylpropanamide] | 0.4 µg/mL (≈ 0.691 µM) | ≥ 2 µg/mL | 2 µg/mL (≈ 3.46 µM) | 0.08 µg/mL (≈ 0.138 µM) | 0.4 µg/mL (≈ 0.691 µM) | 50 µg/mL (≈ 86.4 µM) | 0.08 µg/mL (≈ 0.138 µM) | ≥ 50 µg/mL | AA (≥85% control of barley powdery mildew) | AA (≥85% control of cucumber powdery mildew) | A (from 70% to 84% control of wheat septoria leaf blotch) | D (<25% control of wheat fusarium head blight) | AA (≥85% control of wheat leaf rust) | AA (≥85% control of Asian soybean rust)
COc1ccc(F)cc1[C@H](Cn1c(=O)n([C@H](C)C(=O)NC(C)C)c(=O)c2c(C)c(-n3nccn3)sc21)OCCC#N [Compound I-198, (R)-2-(1-((R)-2-(2-cyanoethoxy)-2-(5-fluoro-2-methoxyphenyl)ethyl)-5-methyl-2,4-dioxo-6-(2H-1,2,3-triazol-2-yl)-1,4-dihydrothieno[2,3-d]pyrimidin-3 (2H)-yl)-N-isopropylpropanamide] | 0.4 µg/mL (≈ 0.685 µM) | 0.08 µg/mL (≈ 0.137 µM) | 0.08 µg/mL (≈ 0.137 µM) | 0.08 µg/mL (≈ 0.137 µM) | 0.4 µg/mL (≈ 0.685 µM) | 2 µg/mL (≈ 3.43 µM) | 0.08 µg/mL (≈ 0.137 µM) | ≥ 2 µg/mL | AA (≥85% control of barley powdery mildew) | AA (≥85% control of cucumber powdery mildew) | AA (≥85% control of wheat septoria leaf blotch) | C (from 25 to 49% control of wheat fusarium head blight) | AA (≥85% control of wheat leaf rust) | AA (≥85% control of Asian soybean rust)
